≈ marks a conversion by molar mass, not a printed value.
How the values were obtained:
human PBMC = conditions: cited from earlier work
[1] = Solubility in water and in 40% (w/v) HPBCD solution by UV absorbance; assay type: physicochemical; conditions: for solubility at 1 h: thermodynamic from solid
Method: To determine solubilities, test compounds were first dissolved in ethanol to prepare standard solutions with concentrations in the range 2.5–10 mg/ml, then were diluted with to 10 μg/ml with water. UV scans were obtained of the 10 μg/ml standard solutions, and the wavelength of maximum absorbance and the absorbance at the maximum absorbance wavelength were determined. For each test compound 50 μl aliquots of water and of 40% HPBCD were added to individual Eppendorf tubes containing approximately 1 mg of compound each. The tubes were heated in a 30° C. waterbath, vortexed, then centrifuged at 15,000 rpm for 5 min. This step was repeated, then the tubes were cooled to room temperature for 1 hour, then were centrifuged again. The supernatant from each tube was diluted with water into the appropriate absorbance range, and the UV absorbance was measured at the compound's absorbance maximum wavelength. The concentrations of these saturated solutions were then calculated by ratio to the 10 μg/ml ethanolic standard solutions.

[2] = test system: RPMI 8226 multiple myeloma cells; assay type: in vivo
Method: Chemicals. β-lapachone was synthesized and dissolved in 40% hydroxypropyl β-cyclodextrin at a concentration of 10 mg/mL and kept at room temperature in a dark container. Hydroxypropyl β-cyclodextrin was dissolved in distilled water at a concentration of 10 mg/mL and kept at room temperature. […]®, a basement membrane matrix was purchased from Becton Dickinson Labware (BD Biosciences, Two Oak Park Drive, Bedford, Mass.) and was dissolved in Dulbecco's modified Eagle's medium with 50 μg/mL Gentamycin and kept frozen at −20° C. […]® is extracted from the Engelbreth-Holm-Swarm mouse tumor, a tumor rich in extracellular matrix proteins. The major matrix components are laminin, collagen IV, entactin, and heparan sulfate proteoglycan (perlecan); the matrix also contains growth factors, matrix metalloproteinases (MMPs [collagenases]), and plasminogen activators, without any inhibitors of metalloproteinases (TIMPs). The […] matrix is a solution at 4° C. and gels at room temperature to form a three-dimensional reconstituted basement membrane. This model system closely mimics the structure, composition, physical properties, and functional characteristics of the basement membrane in vivo and provides a physiologically relevant environment for studies of cell morphology, biochemical function, migration or invasion, and gene expression. The frozen […]® matrix was thawed overnight at 4° C. before use.
Cell Cultures. RPMI8226 cells (a human multiple myeloma cell line) were provided Dr. William Dalton (Lee Moffit Cancer Center, Tampa, Fla.). They were maintained by frequent passages in RPMI 1640 (Cellgro®, Mediatech Inc., Herndon, Va.) containing 10% Fetal Bovine serum (FBS) (GibcoBRL, Life Technologies, Grand Island, N.Y.) supplemented with 2×10^−3M L-Glutamine, 100 units/mL penicillin (Pen), and 100 μg/mL streptomycin (Cellgro®D, Mediatech Inc., Herndon, Va.) in 162 cm^2 cell culture flasks (Costar®, Corning Incorporated, Corning, N.Y.). The exponentially growing cell lines were CD138+, CD38+/CD45RA−, EBV negative, and pathogen free.
Mice. Forty male 6 week old Bg-Nu-Xid mice (deficient in T, B, and NK cells) were obtained from the FCRDC, Frederick, Bethesda, Md. and housed at the Redstone animal facility at DFCI. These mice have 3 separate mutations—Beige (Bg) autosomal recessive mutation associated with impaired chemotaxis and motility of macrophages & deficiency of NK cells; the nude (nu) autosomal recessive mutation associated with depletion of T cells due to thymic agenesis; and the X-linked immune defect (xid) which produces functional defects of B lymphocytes. The animals were raised in a barrier facility in cages with saw dust bedding and laminar air at 19–22° C. Rodent food and sterile drinking water were supplied ad libitum. The mice were quarantined to rule out development of any disease. One mouse died during transport, and 5 others were lost because of dehydration (n=2), probable infection (n=2) and excessive bleeding due to trauma (n=1). After 1 week, enrofloxacin (a quinolone antibiotic) was added in drinking water of all mice. All procedures involving animals were approved by and performed according to guidelines of the Institutional Animal Care and Use Committee of the Dana Farber Cancer Institute (DFCI).
Histologic Analysis. The mice were sacrificed when the tumor reached 20 mm in their largest diameter or they became moribund, as per the policy of the Animal Protocol Committee at Dana Farber Cancer Institute. […]

[3] = target: human DNA Topoisomerases II (Homo sapiens, UniProt P11388); conditions: cited from earlier work
Chain of human DNA Topoisomerases II (P11388 whole entry): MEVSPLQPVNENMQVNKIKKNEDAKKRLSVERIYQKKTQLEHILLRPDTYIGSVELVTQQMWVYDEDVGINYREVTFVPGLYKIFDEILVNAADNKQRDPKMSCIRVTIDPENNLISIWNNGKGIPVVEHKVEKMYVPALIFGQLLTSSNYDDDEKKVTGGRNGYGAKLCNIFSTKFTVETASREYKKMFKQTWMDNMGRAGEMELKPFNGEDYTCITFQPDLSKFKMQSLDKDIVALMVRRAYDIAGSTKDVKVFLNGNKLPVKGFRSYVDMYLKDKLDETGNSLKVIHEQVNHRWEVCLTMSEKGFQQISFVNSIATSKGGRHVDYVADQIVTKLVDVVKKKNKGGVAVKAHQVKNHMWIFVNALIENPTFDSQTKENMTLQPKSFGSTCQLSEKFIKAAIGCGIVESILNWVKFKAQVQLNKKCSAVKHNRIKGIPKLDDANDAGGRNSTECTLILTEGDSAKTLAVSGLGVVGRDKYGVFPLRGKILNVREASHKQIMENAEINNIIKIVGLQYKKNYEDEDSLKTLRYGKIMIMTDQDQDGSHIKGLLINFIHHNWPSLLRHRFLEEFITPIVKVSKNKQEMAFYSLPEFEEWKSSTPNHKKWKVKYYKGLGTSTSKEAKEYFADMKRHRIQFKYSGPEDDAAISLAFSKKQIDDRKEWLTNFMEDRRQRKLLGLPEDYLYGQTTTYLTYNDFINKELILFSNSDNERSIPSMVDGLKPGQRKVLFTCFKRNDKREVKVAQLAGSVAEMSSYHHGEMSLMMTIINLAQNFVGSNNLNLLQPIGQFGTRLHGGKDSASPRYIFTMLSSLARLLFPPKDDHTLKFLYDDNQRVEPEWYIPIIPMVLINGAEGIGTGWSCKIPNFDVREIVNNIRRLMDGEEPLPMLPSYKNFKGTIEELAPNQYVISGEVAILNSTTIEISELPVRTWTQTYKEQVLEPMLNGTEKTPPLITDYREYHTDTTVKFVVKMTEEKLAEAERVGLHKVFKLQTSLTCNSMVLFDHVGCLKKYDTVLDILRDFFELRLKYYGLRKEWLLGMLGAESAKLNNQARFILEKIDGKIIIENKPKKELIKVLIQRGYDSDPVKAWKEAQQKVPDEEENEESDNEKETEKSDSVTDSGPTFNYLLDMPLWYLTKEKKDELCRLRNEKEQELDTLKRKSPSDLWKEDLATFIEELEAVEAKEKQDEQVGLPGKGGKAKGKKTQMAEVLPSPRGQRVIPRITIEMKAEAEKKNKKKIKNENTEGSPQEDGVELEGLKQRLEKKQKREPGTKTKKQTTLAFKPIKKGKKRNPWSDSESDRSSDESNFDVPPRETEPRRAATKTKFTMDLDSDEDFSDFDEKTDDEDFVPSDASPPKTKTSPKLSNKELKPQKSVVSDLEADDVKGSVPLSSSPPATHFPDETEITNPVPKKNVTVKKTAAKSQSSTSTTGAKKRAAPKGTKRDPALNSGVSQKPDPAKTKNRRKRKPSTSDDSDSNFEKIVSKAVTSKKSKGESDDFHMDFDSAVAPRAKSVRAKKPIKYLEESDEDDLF

[4] = test system: Human ovarian cancer cells (36M2); assay: Human ovarian cancer xenograft model, β-lapachone in Lipiodol and Taxol®; assay type: in vivo, athymic female nude mice; conditions: i.p., 10 cycles
Method: Human ovarian cancer cells (36M2, originally isolated from malignant ascites) were inoculated by i.p. injection into athymic female nude mice 24 h after irradiation. In this model, metastatic foci form approximately 1 week after inoculation, and tumor nodules of the peritoneum and malignant ascites develop in 4–5 weeks. Ten days after tumor inoculation (10×10^6 cells), treatment regimens were initiated. The control group was treated with vehicle alone. In each typical treatment cycle, the β-lapachone alone group was treated with 25–50 mg/kg i.p. of β-lapachone in Lipiodol solution and the Taxol® alone group was treated at 1 mg/kg i.p. (Taxol® formulation diluted in Lipiodol), both followed 24 h later by i.p. injection of vehicle. In the combination group, nude mice were treated with β-lapachone at 25–50 mg/kg, followed 24 h later by Taxol® at 1 mg/kg. All groups were treated for 10 cycles, with a 1-day break between each cycle. […] Host toxicity was evaluated by general appearance and body weight.

human carcinoma cells = assay: Colony formation assay of β-lapachone combined with Taxol®; assay type: cell-based; conditions: 4 h exposure, colonies scored after 10–20 days; ovarian, breast, prostate, melanoma, lung and pancreatic cell lines, FIG. 4
Method: In these studies, exponentially growing cells were seeded at 1,000 cells per well in six-well plates and allowed to attach for 48 h. β-lapachone and/or Taxol®, solubilized in DMSO, were added to the wells. Control wells were treated with equivalent volumes of DMSO. After 4 h cells were rinsed and fresh medium was added. Cultures were observed daily for 10–20 days and then were fixed and stained. Colonies of greater than 30 cells were scored as survivors.

Structure (SMILES): CC1(C)CCC2=C(O1)c1ccccc1C(=O)C2=O [β-lapachone]
- cytotoxic effects on normal cells (human PBMC): No cytotoxic effects were observed
- Solubility Enhancement ([1]; 1 h): 323 −Fold
- solubility at 1 h ([1]; aqueous with cosolvent or surfactant or cyclodextrin): 14000 µg/mL (≈ 57.8 mM)
- solubility at 1 h ([1]; water): 43 µg/mL (≈ 0.177 mM)
- tumor volume versus control group ([2]; 50 mg/kg i.p. every alternate day in 40% HPBCD, by day 11, p=0.007): statistically significant decrease in tumor volume
- survival compared to controls ([2]; day 5, 7, 9, 11, 13, 15 and 17, FIG. 16): survival was greater
- MM cell apoptosis in tumors (mean±SD) ([2]; histopathology, light microscopy, p=0.001 versus control): 41.1%±12.7
- kidney histology ([2]; mouse, in vivo): mild tubular vacuolization
- microscopic toxicity on liver, heart, lung, brain, and spleen ([2]; mouse, in vivo): no microscopic evidence of any toxicity
- in vitro inhibition [3]: potent in vitro inhibition
- decrease in tumor number versus control ([4]; assessed day 50, β-lapachone 25–50 mg/kg in Lipiodol, Taxol® 1 mg/kg): ~75%
- size of the tumor nodules and amount of ascites ([4]; laparotomy at day 50): considerable reduction in the size of the tumor nodules and the amount of ascites
- inhibition of cancer cell survival (colony formation) (human carcinoma cells): much less effective

Reference: patent US7074824B2, “Pharmaceutical compositions containing beta-lapachone, or derivatives or analogs thereof, and methods of using same” (Arqule, Inc., priority 2001, dated 2006)
